Tests used:
[1] = test system: T98 (p53 mutant glioblastoma multiforme) cells; assay: MTT cytotoxicity assay, T98 cells; assay type: cell-based, human; conditions: for IC50: MTT, 48 h treatment; for selectivity index (SI = IC50MRC5/IC50tumor cell), T98: T98 vs MRC5
Description: (§1) The in vitro cytotoxic effects of H2AcMe, H2BzMe and complexes 1 and 2 against wild type p53 U87 and mutant p53 T98 glioblastoma cells and against MRC-5 fibroblasts cells were tested using cisplatin as a positive control. To determine the IC50 (concentration that inhibits 50% of cell survival) values the cytotoxic effects were quantified using the 3-(4,5-dimethyl-2-thioazolyl)-2,5-diphenyl tetrazolium bromide (MTT) colorimetric assay. All tested compounds were cytotoxic against both glioma cell lines in a dose-dependent way. The IC50 values (see Table 1) were found in the micromolar range. Despite their cytotoxic activity, all compounds were less toxic to fibroblasts cells than cisplatin. CuCl2 evoked only mild cytotoxicity in all cell lineages with IC50 higher than 100 µM.
(§2) U87 (p53 wild-type glioblastoma multiforme) and T98 (p53 mutant glioblastoma multiforme) malignant human tumor cells and MRC5 (Human Fetal Lung Fibroblast) cells were obtained from the American Type Culture Collection (ATCC, Manassas, VA, USA). Cell lines were grown as monolayer in Dulbecco’s Modified Eagle’s Medium (DMEM, Gibco, Rockville, MD, USA), supplemented with 10% fetal bovine serum (Cultilab, Campinas, São Paulo, Brazil) and antibiotics (50 U/mL penicillin/50 […] streptomycin), in a humidified atmosphere air/CO2 (95%/5%) at 37 °C. Cells 80% confluents were used in all experiments. For all experiments, cells were seeded in 96-well plates, at a density of 1000 cells/well. After 24 h incubation cells were treated.
(§3) To determine the IC50 values the cytotoxic effects were quantified using the 3-(4,5-dimethyl-2-thioazolyl)-2,5-diphenyltetrazolium bromide (MTT) colorimetric assay. Briefly, cells were treated with increasing concentrations (10^−12, 10^−11, 10^−10, 10^−9, 10^−8, 10^−7, 10^−6, 10^−5, 10^−4 mol·L^−1) of either cisplatin (positive control) or test compounds (H2AcMe, H2BzMe, 1 and 2). The compounds were previously dissolved in dimethyl sulfoxide (DMSO) and the final concentrations were adjusted in DMEM in such manner that the final DMSO concentration was lower than 0.5%. Following 48 h treatment, MTT reagent was added to each well. Following another 4 h of incubation at 37 °C, DMSO was added to each well to dissolve formazan precipitate and absorbance was measured at 570 nm. Tests using DMSO (0.5% in DMEM) as negative control were carried out in parallel. All tests were performed in quadruplicates with full agreement between the results. Statistical analysis was carried out by the unpaired, one-tailed Student’s t testing using a p value of 0.05. A value of p < 0.05 was considered significant.

[2] = test system: U87 (p53 wild-type glioblastoma multiforme) cells; assay: MTT cytotoxicity assay, U87 cells; assay type: cell-based, human; conditions: for IC50: MTT, 48 h treatment
Description: as §1, §2, §3

[3] = test system: MRC5 (Human Fetal Lung Fibroblast) cells; assay: MTT cytotoxicity assay, MRC5 fibroblasts; assay type: cell-based
Description: as §1, §2, §3

pUC 19 plasmid DNA = assay: Agarose gel electrophoresis of supercoiled plasmid DNA; design: species or system Escherichia coli; conditions: 100 µM, Tris-HCl pH 7.20, 37 °C, 24 h
Description: Studies of interactions between the compounds under study and supercoiled plasmid DNA by agarose gel electrophoresis were carried out. Thus, 136 ng of purified plasmid DNA-pUC 19 from Escherichia coli (Sigma-Aldrich Brasil, São Paulo, Brazil) were incubated with compounds 1, 2 and cisplatin at 100 µM in Tris-HCl buffer (NaCl 50 mM, Tris-HCl 5 mM, pH = 7.20). The mixture was incubated at 37 °C for 24 h. Thereafter, the reactions were quenched by adding 5 µL of the loading buffer solution (50 mM Tris, pH 7.20, 0.01% bromophenol blue, 50% glycerol, and 250 mM EDTA). The samples were analyzed by 1% agarose gel electrophoresis in 0.5 × TBE buffer for 1 h 40 min at […]. The gel was stained after electrophoresis in 0.5× TBE buffer with 2.5 µg·mL^−1 ethidium bromide for 15 min and visualized by UV light.

U87 cells = assay: ROS generation, DCFH-DA assay, U87 cells; assay type: cell-based, human; conditions: 1 × 10^−5 mol/L, 24 h
Excerpt: (§4) To examine the effects of H2AcMe, H2BzMe and their complexes 1 and 2 on the generation of free radicals (reactive oxygen species, ROS), we used the 2',7'-dichlorodihydrofluorescein diacetate (DCFH-DA) assay.
(§5) ROS accumulation was detected using dichlorodihydrofluorescein diacetate (DCFH-DA, Sigma). DCFH-DA is a non-fluorescent compound, that when it is taken up by passive diffusion into the cells, is hydrolyzed by esterases to yield non-permeable DCFH. In the presence of ROS, DCFH is oxidized to the fluorescent DCF. Tumor cells were treated with the compounds for 24 h and were then incubated with DCFH-DA (1 × 10^−5 mol·L^−1) for 30 min at 37 °C. Following incubation, the cells were washed twice with PBS. Thereafter, the cells were observed under the fluorescent microscope Zeiss Axionplan coupled with a digital camera at excitation and emission wavelengths of 488 and 525 nm, respectively. Data were analyzed using ImageJ (ImageJ, National Institute of Health, Bethesda, MD, USA) and expressed as percentages of DCFDA fluorescence of the corresponding control.

MRC5 cells = assay: ROS generation, DCFH-DA assay, MRC5 cells; assay type: cell-based, human; conditions: 1 × 10^−5 mol/L, 24 h
Excerpt: as §4, §5

[4] = Homo sapiens, MRC5, 48 h treatment

Row | Compound | IC50 [1] [µM] | IC50 [2] [µM] | IC50 ([3]; 48 h treatment) [µM] | alteration in the electrophoretic mobility of pUC 19 plasmid DNA (pUC 19 plasmid DNA) | ROS levels in U87 cells compared with T98 cells (U87 cells) | IC50 ([1]; Homo sapiens, T98, 48 h) [µM] | selectivity index (SI = IC50MRC5/IC50tumor cell), T98 [1] | IC50 ([2]; Homo sapiens, U-87 MG) [µM] | IC50 [3, 4] [µM] | ROS levels in MRC5 cells compared with glioma cells (MRC5 cells) | selectivity index (SI = IC50MRC5/IC50tumor cell), U87 ([2]; U87 vs MRC5)
1 | [Cl][Cu][Cl] [CuCl2, reference compound] | > 100 | > 100 | > 100 | no alteration in the electrophoretic mobility |  |  |  |  |  |  | 
2 | CC(=O)NN=C(c1ccccc1)c1ccccn1 [H2BzMe, 2-benzoylpyridine acetylhydrazone] | 19.7 ± 1.06 |  |  |  | equally effective in both cell lineages | 19.8 | good selectivity index | 52.3 ± 10 | 62.3 ± 7.76 | the same increasing in ROS levels in MRC5 and in both malignant cells | 
3 | CC(=O)NN=C(C)c1ccccn1 [H2AcMe, 2-Acetylpyridine acetylhydrazone] |  |  |  |  | higher levels of ROS in U87 cells | 13.8 ± 4.89 |  | 67.6 ± 4.08 | 19.8 ± 4.15 | lower levels of ROS in MRC5 cells | 
4 | N.N.[Cl][Pt][Cl] [Cisplatin, [cis(Diaminedichloro)platinum(II)], reference compound] | 5.31 ± 1.94 | 1.76 ± 0.22 | 5.05 ± 0.71 | strong modification |  |  | 0.95 |  |  |  | 2.87

Source: PMC6270821, “ROS-Mediated Cytotoxic Effect of Copper(II) Hydrazone Complexes against Human Glioma Cells” (Molecules, 2014)
